This experiment addresses T1, human vasopressin V1b receptor (Homo sapiens, UniProt P47901).
T1 construct: expressed in transfected cells; host or cells: CHO-K1 (cell line hV1b-3H2_CHO), membrane preparation
T1 sequence (P47901 1-424): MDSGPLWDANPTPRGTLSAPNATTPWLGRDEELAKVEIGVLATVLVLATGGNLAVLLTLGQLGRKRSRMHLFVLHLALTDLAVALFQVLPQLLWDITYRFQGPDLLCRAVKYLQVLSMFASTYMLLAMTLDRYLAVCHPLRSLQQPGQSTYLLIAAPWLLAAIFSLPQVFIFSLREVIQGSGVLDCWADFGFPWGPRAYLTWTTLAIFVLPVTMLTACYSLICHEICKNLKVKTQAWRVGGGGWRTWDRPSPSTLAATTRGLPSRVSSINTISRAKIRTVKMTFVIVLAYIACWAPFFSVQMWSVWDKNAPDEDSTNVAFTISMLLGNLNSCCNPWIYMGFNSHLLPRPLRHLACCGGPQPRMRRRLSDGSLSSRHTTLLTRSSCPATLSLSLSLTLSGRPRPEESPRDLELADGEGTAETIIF
The experiment in a line: Vasopressin V1b receptor binding assay. As to conditions: membranes from CHO-K1 cells with stably expressed human V1b receptors, displacement of 1.5 nM 3H-AVP. The protocol: Vasopressin V1b Receptor Binding Assay:
The test substances were dissolved in a concentration of 10^−2 M in DMSO (dimethyl sulfoxide) and further diluted to 5×10^−4 M to 5×10^−9 M in DMSO. This series of DMSO predilutions was diluted 1:10 with assay buffer. The substance concentration was again diluted 1:5 in the assay mixture (2% DMSO in the mixture).
The membrane pellet was again homogenized and centrifuged as described and then taken up in 50 mM Tris-HCl, pH 7.4, homogenized and stored in aliquots frozen in liquid nitrogen at −190° C.
The incubation buffer was: 50 mM Tris, 10 mM MgCl2, 0.1% BSA, pH 7.4.
The nonspecific binding was determined with 1 uM AVP (Bachem # H1780). All determinations were carried out as triplicate determinations. After incubation (60 minutes at room temperature), the free radioligand was removed by vacuum filtration (Skatron cell harvester 7000) through Whatman GF/B glass fiber filter mats, and the filters were transferred into scintillation vials. The liquid scintillation measurement took place in a Tricarb model 2000 or 2200CA instrument (Packard). Conversion of the measured cpm into dpm was carried out with the aid of a standard quench series.
The binding parameters were calculated by nonlinear regression in SAS.

Data on ten compounds can be found in patent US8691815B2, “Substituted oxindole derivatives, drugs containing said derivatives and the use thereof” (AbbVie Deutschland GmbH & Co. KG, priority 2005, dated 2014).

Counter-ions that a name gives are not always drawn.

One may read the Ki as the dissociation constant of the complex between target and ligand, obtained from inhibition or displacement. Higher therefore signals lower affinity. With `COc1ccc(S(=O)(=O)N2C(=O)C(c3ccc(CN4CCCCC4)cc3OC)(N3CCC[C@H]3C(=O)N(C)C)c3cc(Cl)ccc32)c(OC)c1` (single isomer, unassigned) [Example 8], the Ki was 1 to 10 nM.
The compound `COc1ccc(S(=O)(=O)N2C(=O)C(c3ccc(CN4CCOCC4)cc3OC)(N3CCC[C@H]3C(=O)N(C)C)c3cc(Cl)ccc32)c(OC)c1` (single isomer, unassigned) [Example 10] yielded a Ki of 10 to 100 nM.
The result for `COc1ccc(S(=O)(=O)N2C(=O)C(c3cccc(CN(C)C)c3)(N3C[C@H](O)C[C@H]3C(=O)N(C)C)c3cc(Cl)ccc32)c(OC)c1` (single isomer, unassigned) [Example 16] reads 1 to 10 nM; that for `COc1ccc(S(=O)(=O)N2C(=O)C(c3ccc(CN4CCCC4)cc3OC)(N3CCC[C@H]3C(=O)N(C)C)c3cc(Cl)ccc32)c(OC)c1` (stereo partly drawn) [Example 1, (S)-1-[5-Chloro-1-(2,4-dimethoxybenzenesulfonyl)-3-(2-methoxy-4-pyrrolidin-1-yl-methylphenyl)-2-oxo-2,3-dihydro-1H-indol-3-yl]-pyrrolidine-2-dimethylcarboxamide, trifluoroacetic acid salt], under 1 nM.
The compound `COc1cc(CN2CCCC2)ccc1C1(N2CCC[C@H]2C(=O)N(C)C)C(=O)N(S(=O)(=O)c2ccc(F)cc2)c2ccc(Cl)cc21` (stereo partly drawn) [Example 3, (S)-1-[5-Chloro-1-(4-fluorobenzenesulfonyl)-3-(2-methoxy-4-pyrrolidin-1-ylmethyl-phenyl)-2-oxo-2,3-dihydro-1H-indol-3-yl]pyrrolidine-2-dimethylcarboxamide, trifluoroacetic acid salt] returned a Ki of 1 to 10 nM.
Consider `COc1cc(CN2CCCC2)ccc1C1(N2CCC[C@H]2C(=O)N(C)C)C(=O)N(S(=O)(=O)c2ccc(Cl)cc2)c2ccc(Cl)cc21` (stereo partly drawn) [Example 4, (S)-1-[5-Chloro-1-(4-chlorobenzenesulfonyl)-3-(2-methoxy-4-pyrrolidin-1-ylmethyl-phenyl)-2-oxo-2,3-dihydro-1H-indol-3-yl]pyrrolidine-2-dimethylcarboxamide, trifluoroacetic acid salt], for which the inhibition constant Ki is under 1 nM.
As for `COc1cc(CN2CCCC2)ccc1C1(N2CCC[C@H]2C(=O)N(C)C)C(=O)N(S(=O)(=O)c2ccc(C#N)cc2)c2ccc(Cl)cc21` (stereo partly drawn) [Example 5, (S)-1-[5-Chloro-1-(4-cyanobenzenesulfonyl)-3-(2-methoxy-4-pyrrolidin-1-ylmethyl-phenyl)-2-oxo-2,3-dihydro-1H-indol-3-yl]pyrrolidine-2-dimethylcarboxamide, trifluoroacetic acid salt], the Ki was under 1 nM.
`COc1ccc(S(=O)(=O)N2C(=O)C(c3ccc(CN4CCCC4)cc3)(N3C[C@H](O)C[C@H]3C(=O)N(C)C)c3cc(Cl)ccc32)c(OC)c1` (stereo partly drawn) [Example 6, (2S,4R)-1-[5-Chloro-1-(2,4-dimethoxybenzenesulfonyl)-2-oxo-3-(4-pyrrolidin-1-yl-methylphenyl)-2,3-dihydro-1H-indol-3-yl]-4-hydroxypyrrolidine-2-dimethylcarboxamide] yielded a Ki of 10 to 100 nM.
For the compound `COc1ccc(S(=O)(=O)N2C(=O)C(c3ccc(CN(C)C)cc3OC)(N3CCC[C@H]3C(=O)N(C)C)c3cc(Cl)ccc32)c(OC)c1` (stereo partly drawn) [Example 7, (S)-1-[5-Chloro-1-(2,4-dimethoxybenzenesulfonyl)-3-(4-dimethylaminomethyl-2-methoxyphenyl)-2-oxo-2,3-dihydro-1H-indol-3-yl]-pyrrolidin-2-dimethylcarboxamide], the Ki is 1 to 10 nM.
Next, `COc1ccc(S(=O)(=O)N2C(=O)C(c3ccc(CN4CCN(C)CC4)cc3OC)(N3CCC[C@H]3C(=O)N(C)C)c3cc(Cl)ccc32)c(OC)c1` (stereo partly drawn) [Example 9, (S)-1-{5-Chloro-1-(2,4-dimethoxybenzenesulfonyl)-3-[2-methoxy-4-(4-methyl-piperazin-1-ylmethyl)phenyl]-2-oxo-2,3-dihydro-1H-indol-3-yl}pyrrolidine-2-dimethylcarboxamide]: 1 to 10 nM.
